Columns and labels:
[1] = test system: normal stellate cells (hNP); settings: SDF-1 0.025 μM, 2 h, AMD3100 5-50 μM 60 minutes
Method: The migration assays were performed by using transwell migration assays with polycarbonate membrane inserts with 8 μm pore size that is optimal for fibroblast-like cell migration (Corning Incorporated, NY, cat #3422). Stellate cells were treated with siRNA (100 nM) for 48 h, or with increasing concentrations of AMD3100 (5 μM-50 μM) or INNO-406 (10 nM-100 nM) for 60 minutes. Then, cells were placed in the migration upper chambers, in the presence or absence of SDF-1 (0.025 μM) with 2% FBS in the lower chambers. After 2 h of incubation, cells migrated to the lower chamber were counted, and the chemotactic index was determined as follows:
(number of cells migrating to SDF-1 chemokine)/(number of cells migrating to medium alone)
To distinguish chemotaxis versus chemokinesis, a control checkerboard analysis was performed.

[2] = test system: chronic pancreatitis stellate cells (hCP); experiment: Transwell migration assay with SDF-1, chronic pancreatitis stellate cells; assay type: cell-based, human; settings: SDF-1 0.025 μM, 2 h; siRNA 100 nM 48 h, AMD3100 5-50 μM or INNO-406 10-100 nM 60 minutes
[3] = test system: cerulein-induced pancreatic fibrosis; experiment: Cerulein-induced pancreatic fibrosis (chronic pancreatitis) mouse model, Picro-Sirius Red quantitation; assay type: in vivo, C57BL/6J mice; settings: cerulein plus 120 mg INNO-406/kg per day oral gavage for 6 weeks; cerulein alone 16.39+/−3.08%, untreated 2.00+/−0.84%
Excerpt: There is no optimal animal model available for human pancreatitis-induced fibrosis, to date. However, a most commonly used experimental model of chronic pancreatitis (CP) partially recapitulating human disease is repeated injection of cerulein into mice (Ulmasov, B. et al. Am J Pathol. 183, 692-708 (2013)). C57BL/6 is the most frequently used mouse strain for this type of biomedical research. In our current experiments, C57BL/6J mice (2 months old male and female) were divided into 3 groups (each group consisted of 15 animals) as follows: (1) untreated mice (saline only); (2) mice treated with cerulein for 6 weeks (50 μg/kg hourly, 6 hourly injections in one day constituted one treatment, twice-weekly); (3) mice treated with cerulein (as above) plus 120 mg INNO-406/kg per day for 6 weeks (oral gavage). When 120 mg INNO-406/kg per day is administrated orally to the mice, the concentration of INNO-406 in the soft tissues is estimated to be 0.24 μM according to pharmacokinetic studies described previously (Kimura, S. et al. Blood., 106, 3948-3954 (2005); Yokota, A, et al. Blood, 109, 306-314 (2007)). […] Picro sirius red quantitation were performed using Leica Biosystem Tissue IA Optimizer web-based program that measures positive stained intensity per area at 10× magnification. […]

[4] = 120 mg INNO-406/kg per day orally to mice; estimated according to previously described pharmacokinetic studies; cited from earlier work

Structure (SMILES) | SDF-1/CXCR4-induced chemotaxis (chemotactic index) [1] | SDF-1/CXCR4-induced chemotaxis (chemotactic index) [2] | pancreatic fibrosis (Picro-Sirius Red positive stained area per total area) [3] | concentration of INNO-406 in the soft tissues [4] [nM]
c1cc(CN2CCCNCCNCCCNCC2)ccc1CN1CCCNCCNCCCNCC1 [AMD3100] | could be blocked | could be blocked | – | –
Cc1ccc(NC(=O)c2ccc(CN3CC[C@H](N(C)C)C3)c(C(F)(F)F)c2)cc1Nc1nccc(-c2cncnc2)n1 [INNO-406, Bafetinib] | – | – | 7.50+/−4.77% | 240

From patent publication US20180221369A1, “COMPOSITIONS AND METHODS FOR TREATING FIBROSING DISORDERS AND CANCER” (Cedars-Sinai Medical Center, priority 2014, published 2018)
